Columns and labels:
[1] = in vivo; cited from earlier work
[2] = system: Cognitively healthy young adult male Wistar rats; test: Passive avoidance test, scopolamine given 7 days after end of supplementation; format: in vivo, rat
Procedure: Cognitively healthy young adult male Wistar rats weighing 260-280 g were randomly ascribed to groups and supplemented daily with aqueous solution of 5 mg/kg of compound of formula (I) in water of the invention for seven consecutive days. Then, after the break in the supplementation for next seven days, scopolamine 1 mg/kg i.p. or vehicle was administered (at day 14) 30 min before the acquisition trial in the passive avoidance test (“Compound (I)+Scopolamine” group). In “Vehicle+Vehicle” group, rats received vehicle for seven consecutive days and then vehicle 30 min before the acquisition trial in the passive avoidance test at 14th day. In “Vehicle+Scopolamine” group, rats received vehicle for seven consecutive days and then scopolamine 1 mg/kg i.p. 30 min before the acquisition trial in the passive avoidance test at 14th day. […] Passive avoidance test requires the rats to behave contrary to their innate tendencies for preference of dark areas and avoidance of bright ones. The apparatus used in this test is composed by a dark compartment and a bright compartment. The latency to enter the dark chamber was measured using 300 s maximum trial duration. In the acquisition trial, the animal received a 0.4 mA electric shock for 3 s when entering the dark chamber. Retention trial was performed 24 h after the acquisition trial. […]

C[N+](C)(C)CCO [compound of formula (I), choline succinate (2:1)]
elimination half-life [1]: less than 1.2 h
Relative risk of disturbance of cognitive function ([2]; as compared to Vehicle+Scopolamine group): 0.51
Rate of disturbance of cognitive function (latency <207 s) ([2]; retention trial, scopolamine 1 mg/kg i.p.): 0.36

From patent US20180028473A1, “NUTRIENTS SOLUTIONS” (Mitochondrial Substrate Invention Ltd., priority 2014, published 2018)
